From US9693560B2, “Microbicide substances” (LANXESS Deutschland GmbH, priority 2013, dated 2017)
Counter-ions that a name gives are not always drawn. Like-named read-outs stand apart in the source and are kept apart here.

Assays:
Type in all cases: cell-based
Candida albicans = experiment: MIC growth test (malt extract Bouillon)
Protocol: (§1) The growth of bacteria and fungi upon the addition of different biocidal mixtures was tested. The concentration above which growth is no longer detected is given as the minimum inhibitory concentration (MIC). The precultivation of the bacteria which were used in the test was performed on tryptone soya agar. The precultivation of the fungi which were used in the test was performed on malt extract agar. The growth in the MIC tests was checked in tryptone soya broth (bacteria) or malt extract Bouillon (fungi). The organisms were incubated at 26° C. and a relative […] humidity of 70 to 80%. The bacteria were evaluated after 4 days, and the fungi were evaluated […] after 7 days.
(§2) The synergistic index (SI) was determined in accordance with the method described by Kull et al. (F. C. Kull et al., Applied Microbiology 9 (1961), 538-541).
(§3) The following equation applies here: SI=QA/Qa+QB/Qb

Alternaria alternata = experiment: MIC growth test (malt extract Bouillon)
Protocol: as §1, §2, §3

Geotrichum candidum = experiment: MIC growth test (malt extract Bouillon)
Protocol: as §1, §2, §3

Stachybotrys chartarum = experiment: MIC growth test (malt extract Bouillon)
Protocol: as §1, §2, §3

Penicillium pinophilum = experiment: MIC growth test (malt extract Bouillon); details: Talaromyces pinophilus
Protocol: as §1, §2, §3

Paecilomyces formosus = experiment: MIC growth test (malt extract Bouillon)
Protocol: as §1, §2, §3

Salmonella enterica = experiment: MIC growth test (tryptone soya broth); details: Example 3, Table 11
Protocol: as §1, §2, §3

Staphylococcus aureus = experiment: MIC growth test (tryptone soya broth)
Protocol: as §1, §2, §3

Enterobacter aerogenes = experiment: MIC growth test (tryptone soya broth)
Protocol: as §1, §2, §3

Alcaligenes faecalis = experiment: MIC growth test (tryptone soya broth)
Protocol: as §1, §2, §3

Escherichia coli = experiment: MIC growth test (tryptone soya broth)
Protocol: as §1, §2, §3

[1] = tested on: Corynebacterium ammoniagenes; experiment: MIC growth test (tryptone soya broth)
Protocol: as §1, §2, §3

Pseudomonas aeruginosa = experiment: MIC growth test (tryptone soya broth)
Protocol: as §1, §2, §3

Bacillus subtilis = experiment: MIC growth test (tryptone soya broth)
Protocol: as §1, §2, §3

Citrobacter freundii = experiment: MIC growth test (tryptone soya broth)
Protocol: as §1, §2, §3

Proteus hauseri = experiment: MIC growth test (tryptone soya broth)
Protocol: as §1, §2, §3

Pseudomonas stutzeri = experiment: MIC growth test (tryptone soya broth)
Protocol: as §1, §2, §3

Enterococcus hirae = experiment: MIC growth test (tryptone soya broth)
Protocol: as §1, §2, §3

`CCCCCCCCCCCCNC(=N)N` [DGH, dodecylguanidine hydrochloride] showed an MIC (Candida albicans) of 25 µg/mL, an MIC (Alternaria alternata) of 10 µg/mL and an MIC (Geotrichum candidum) of 10 µg/mL. For the same compound, the MIC (Stachybotrys chartarum; Example 2, Table 10) was 7.5 µg/mL, the MIC (Stachybotrys chartarum; Example 4, Table 23) was 10 µg/mL and the MIC (Penicillium pinophilum) was 7.5 µg/mL. For the same compound, the MIC (Paecilomyces formosus) was 5 µg/mL, the MIC (Salmonella enterica) was 10 µg/mL and the MIC (Staphylococcus aureus) was 1 µg/mL. It also gave an MIC (Staphylococcus aureus; Example 3, Table 14) of 1 ppm, an MIC (Enterobacter aerogenes; Klebsiella aerogenes) of 10 µg/mL and an MIC (Alcaligenes faecalis) of 10 µg/mL. For the same compound, the MIC (Alcaligenes faecalis; Example 3, Table 11) was 10 ppm, the MIC (Escherichia coli) was 5 µg/mL and the MIC [1] was 2.5 µg/mL. The MIC (Pseudomonas aeruginosa) was 25 µg/mL, the MIC (Bacillus subtilis; Example 2, Table 7) was 2.5 µg/mL and the MIC (Bacillus subtilis; Example 3, Table 11) was 3.75 µg/mL. The MIC (Citrobacter freundii) was 5 µg/mL, the MIC (Citrobacter freundii; Example 3, Table 11) was 5 ppm and the MIC (Proteus hauseri) was 10 µg/mL. It also gave an MIC (Pseudomonas stutzeri; Stutzerimonas stutzeri) of 5 µg/mL and an MIC (Enterococcus hirae) of 2.5 µg/mL.
`Cn1sccc1=O` [MIT, 2-methyl-4-isothiazolin-3-one] was tested, and the MIC (Alternaria alternata) was 100 µg/mL, the MIC (Stachybotrys chartarum; Example 4, Table 23) was 250 µg/mL and the MIC (Escherichia coli) was 25 µg/mL.
`O=c1[nH]sc2ccccc12` [BIT, 1,2-benzisothiazolin-3-one] showed an MIC (Candida albicans; Example 3, Table 17) of 25 ppm, an MIC (Staphylococcus aureus; Example 3, Table 14) of 5 ppm and an MIC (Enterobacter aerogenes; Enterobacter aerogenes, Example 3, Table 11) of 25 ppm. For the same compound, the MIC (Alcaligenes faecalis; Example 3, Table 11) was 2.5 ppm, the MIC ([1]; Example 3, Table 11) was 37.5 ppm and the MIC (Pseudomonas aeruginosa; Example 3, Table 11) was 50 ppm. It also gave an MIC (Bacillus subtilis; Example 3, Table 11) of 5 ppm, an MIC (Citrobacter freundii; Example 3, Table 11) of 10 ppm and an MIC (Proteus hauseri; Example 3, Table 11) of 7.5 ppm. For the same compound, the MIC (Pseudomonas stutzeri; Pseudomonas stutzeri, Example 3, Table 11) was 10 ppm and the MIC (Enterococcus hirae; Example 3, Table 11) was 10 ppm.
